In patent publication US20110044892A1, “FORMULATION AND METHOD FOR TREATMENT OF TEETH” (priority 2007, published 2011):

Key:
[1] = Dentinal tubule plugging by lanthanide salt solutions on etched dentine discs (SEM, backscattered SEM, EDX); parameters: species or system human; settings: for presence of the lanthanide by EDX: energy dispersive X-ray microanalysis of treated dentine; for blockage or plugging of the tubules (SEM appearance) / deposits on / coverage of the dentinal surface: solution in water; for blockage or plugging of the tubules (SEM appearance) / deposits on / coverage of the dentinal surface / depth of penetration within the tubules: 5 to 10 minutes on disc; for depth of penetration within the tubules: 4% to 5% by weight solution in water; for depth of penetration within the tubules / penetration of / deposits within the tubules (qualitative): SEM; for penetration of / deposits within the tubules (qualitative): in water
Excerpt: We also assessed other lanthanide compounds, as hereinafter discussed.
For each of the lanthanide salts, caries-free surgically-extracted human molar teeth were cleaned of organic material and, after removal of the crown, sectioned mesio-distally to provide one to two 1-mm dentine discs which were used in the experiment immediately. […] A solution containing a respective one of the above-mentioned lanthanide salts in a concentration of 4% to 5% by weight in the solvent was placed on or in contact with the discs respectively for 5 to 10 minutes before rinsing under flowing tap water. These treated discs were dried completely and then split using pliers, this helping to expose the tubular area for observation of depth of penetration. Specimens were then carbon-coated before examination under SEM (scanning electron microscope). The same procedure was used for each of the other lanthanide compounds hereinafter discussed.
When observed in a backscattered electron beam, dense materials appear as high contrast (bright areas) material relative to the background material (tooth structure). Lanthanides in general have greater density compared to the hydroxyapatite present in the tooth. Thus, in a backscattered electron beam, the lanthanides appear as bright areas due to their high density compared to the background.

[2] = pH of solution or formulation; type: physicochemical; settings: solution as applied to dentin
Excerpt: If the solution applied to the dentin is too acidic, for example, lower than 5.5, it will demineralize and thereby undesirably weaken the dentin. If the solution applied to the dentin is too basic, for example, in excess of 7.5, it will undesirably form a lot of calculus. An ideal pH for the dentin treatment solution is considered to be about 6 to 7, preferably about 6.6 to 7. Such a pH is believed to be important not only to prevent de-mineralization but also to aid in re-mineralization of dentin surfaces. Therefore, in accordance with the present invention, the dentin treatment solution is formulated to have a pH of about 6 to 7, preferably about 6.6 to 7. […] The formulation with the addition of the insoluble oxide forms on the surface of the dentin or other tooth surface a protective coat that keeps the pH constant to maintain the tooth integrity and protect its surface from, for example, routinely used acidic beverages, protection of dental restorations, and microleakage protection (protection from bacterial leakage and leakage associated with restorative materials) as well as for re-mineralization. The insoluble oxide may include other insoluble substances providing a pH of about 6 to 7 in the dentin treatment solution and on the dentin surfaces, for example, amphoteric oxides such as aluminum oxide and zinc oxide. […]

[3] = Excerpt: For the purposes of this specification and the claims, the term “soluble” refers to a characteristic of a salt of dissolving in water (or other solvent in which the salt is placed) to the extent that there is substantially no precipitation or settling out of material.

| SMILES | presence of the lanthanide by EDX [1] | blockage or plugging of the tubules (SEM appearance) [1] | deposits on / coverage of the dentinal surface [1] | pH of solution [2] | depth of penetration within the tubules [1] | penetration of / deposits within the tubules (qualitative) [1] | solubility in water [3] |
| --- | --- | --- | --- | --- | --- | --- | --- |
| O.O.O.O.O.O.O.[Ce+3].[Cl-].[Cl-].[Cl-] [cerium chloride, cerium chloride heptahydrate] | confirmed | substantially complete blockage or plugging of the tubules | cover substantially the dentinal surface |  |  |  |  |
| O.O.O.O.O.O.[Cl-].[Cl-].[Cl-].[Gd+3] [gadolinium chloride, gadolinium chloride hexahydrate] | confirmed | substantially complete blockage or plugging of the tubules | cover substantially the dentinal surface |  |  |  |  |
| O.O.O.O.O.O.O=[N+]([O-])[O-].O=[N+]([O-])[O-].O=[N+]([O-])[O-].[Gd+3] [gadolinium nitrate, gadolinium nitrate hexahydrate] | confirmed | substantially complete blockage or plugging of the tubules | substantially covering the dentinal surface | about 4.3 | up to 5 microns |  |  |
| O=C([O-])[O-].O=C([O-])[O-].O=C([O-])[O-].[La+3].[La+3] [lanthanum carbonate] |  | no plugging observed | no dentin surface deposits were observed |  |  | poor penetration of the tubules |  |
| O.O.O.O.O.O.O.[Cl-].[Cl-].[Cl-].[La+3] [lanthanum chloride, lanthanum chloride heptahydrate] | confirmed | substantially complete blockage or plugging of the tubules | cover some of the surface |  | up to 12 microns |  |  |
| [La+3].[OH-].[OH-].[OH-] [lanthanum hydroxide] |  | no plugging observed | no dentin surface deposits were observed |  |  | poor penetration of the tubules | not being soluble in water |
| O=[N+]([O-])[O-].[K+] [potassium nitrate, reference compound] |  |  | considerable deposits on the surface |  |  | little or no deposits within the tubules |  |
| O=C([O-])C(=O)[O-].[K+].[K+] [potassium oxalate, reference compound] |  | formed crystals that appear to block the tubules | a substantial amount of potassium oxalate was deposited on the dentin surface | about 2 | 3 to 4 microns |  |  |
| O.O.O.O.O.O.[Cl][Sm]([Cl])[Cl] [samarium chloride, samarium chloride hexahydrate] | confirmed | substantially complete blockage or plugging of the tubules | cover substantially the dentinal surface |  |  |  |  |
